Assay results taken from patent publication US11124541B2, “Chimeric melanocortin ligands and methods of use thereof” (REGENTS OF THE UNIVERSITY OF MINNESOTA, priority 2016, dated 2021).
“Also recorded” adds a separate entry of the source. Non-standard residues stand in square brackets, D forms with d. Residues, ends and D or L forms follow the SMILES beside them. Dap = NC[C@H](N)C(=O)O

How the values were obtained:
mMC5R = mMC5R (Mus musculus, UniProt P41149); assay: cAMP AlphaScreen agonist assay, HEK293 cells stably expressing mouse MC5R; conditions: for EC50: read-out: mMC5R EC50, agonist, cAMP; for agonist activity/efficacy at mMC5R (in words): concentrations up to 100 μM
mMC5R, sequence (P41149 whole entry): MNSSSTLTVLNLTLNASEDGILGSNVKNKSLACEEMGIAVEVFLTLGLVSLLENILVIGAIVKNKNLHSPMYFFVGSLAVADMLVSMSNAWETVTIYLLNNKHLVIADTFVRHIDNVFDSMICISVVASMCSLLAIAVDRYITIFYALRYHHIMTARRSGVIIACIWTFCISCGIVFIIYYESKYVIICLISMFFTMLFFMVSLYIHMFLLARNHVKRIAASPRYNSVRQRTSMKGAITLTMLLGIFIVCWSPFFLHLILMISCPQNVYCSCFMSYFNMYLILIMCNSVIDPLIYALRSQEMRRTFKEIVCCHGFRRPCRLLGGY

mMC4R = mMC4R (Mus musculus, UniProt P56450); assay: cAMP AlphaScreen agonist assay, HEK293 cells stably expressing mouse MC4R; conditions: for agonist activity/efficacy at mMC4R (in words): concentrations up to 100 μM; for mMC4R percent maximal stimulatory response at 100 μM: no EC50 determinable, relative to NDP-MSH; for EC50: read-out: mMC4R EC50, agonist, cAMP; for selectivity for the mMC4R over the mMC3R: agonist potency
mMC4R, sequence (P56450 whole entry): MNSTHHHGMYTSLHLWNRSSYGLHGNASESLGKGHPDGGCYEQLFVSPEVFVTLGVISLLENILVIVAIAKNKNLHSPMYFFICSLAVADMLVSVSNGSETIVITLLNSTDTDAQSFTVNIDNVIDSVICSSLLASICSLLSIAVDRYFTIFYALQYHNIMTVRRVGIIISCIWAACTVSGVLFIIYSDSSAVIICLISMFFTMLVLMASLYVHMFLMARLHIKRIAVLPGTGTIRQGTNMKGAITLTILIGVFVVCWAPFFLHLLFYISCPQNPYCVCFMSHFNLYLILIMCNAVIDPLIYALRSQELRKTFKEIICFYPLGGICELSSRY

mMC1R = mMC1R (Mus musculus, UniProt Q01727); assay: cAMP AlphaScreen agonist assay, HEK293 cells stably expressing mouse MC1R; conditions: for EC50: read-out: mMC1R EC50, agonist, cAMP; for agonist activity/efficacy at mMC1R (in words): concentrations up to 100 μM
mMC1R, sequence (Q01727 whole entry): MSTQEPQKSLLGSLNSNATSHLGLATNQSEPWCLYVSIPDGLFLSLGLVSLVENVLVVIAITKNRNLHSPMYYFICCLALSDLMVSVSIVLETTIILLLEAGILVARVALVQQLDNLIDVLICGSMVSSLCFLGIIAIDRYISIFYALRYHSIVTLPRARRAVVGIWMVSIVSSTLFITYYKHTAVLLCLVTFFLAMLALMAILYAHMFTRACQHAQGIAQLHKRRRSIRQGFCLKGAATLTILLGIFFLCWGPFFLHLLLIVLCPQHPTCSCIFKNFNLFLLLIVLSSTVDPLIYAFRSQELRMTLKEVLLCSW

mMC3R = mMC3R (Mus musculus, UniProt P33033); assay: cAMP AlphaScreen agonist assay, HEK293 cells stably expressing mouse MC3R; conditions: for mMC3R percent maximal stimulatory response at 100 μM: no EC50 determinable, relative to NDP-MSH; for agonist activity/efficacy at mMC3R (in words): concentrations up to 100 μM; for EC50: read-out: mMC3R EC50, agonist, cAMP
mMC3R, sequence (P33033 whole entry): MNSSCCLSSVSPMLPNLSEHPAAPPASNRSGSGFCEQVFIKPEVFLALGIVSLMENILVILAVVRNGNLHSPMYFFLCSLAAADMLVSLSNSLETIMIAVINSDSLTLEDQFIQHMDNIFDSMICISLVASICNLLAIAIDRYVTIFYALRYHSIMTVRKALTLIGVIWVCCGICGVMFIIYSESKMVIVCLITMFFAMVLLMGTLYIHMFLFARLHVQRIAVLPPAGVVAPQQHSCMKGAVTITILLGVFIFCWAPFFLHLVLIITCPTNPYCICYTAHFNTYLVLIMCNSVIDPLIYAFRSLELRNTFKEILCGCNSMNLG

| SMILES | EC50 (mMC1R) | EC50 (mMC5R) | agonist activity/efficacy at mMC3R (in words) (mMC3R) | EC50 (mMC4R) | decreased agonist potency at mMC1R relative to MDE5-149-2c (mMC1R) | EC50 (mMC3R) | agonist activity/efficacy at mMC4R (in words) (mMC4R) | other results |
| --- | --- | --- | --- | --- | --- | --- | --- | --- |
| N=C(N)NCCC[C@@H]1NC(=O)[C@@H](Cc2ccccc2)NC(=O)[C@@H]2CCCN2C(=O)[C@H]2CCCN2C(=O)[C@H](Cc2c[nH]c3ccccc23)NC1=O [MDE5-147-1c, c[Pro-DPhe-Arg-Trp-DPro]] (cyclo(P[dF]RW[dP])) | 1800 nM |  |  |  |  |  | stimulated a fraction of the maximal NDP-MSH response | mMC5R percent maximal stimulatory response at 100 μM (mMC5R; 100 μM, no EC50 determinable, relative to NDP-MSH): 75% @ |
| N=C(N)NCCC[C@@H]1NC(=O)[C@@H](Cc2ccccc2)NC(=O)[C@H](Cc2c[nH]cn2)NC(=O)[C@@H]2CCCN2C(=O)[C@H]2CCCN2C(=O)[C@H](Cc2c[nH]c3ccccc23)NC1=O [MDE5-147-2c, c[Pro-His-DPhe-Arg-Trp-DPro]] (cyclo(PH[dF]RW[dP])) | 900 ± 200 nM | 6000 nM | partially stimulated |  |  |  | stimulated a fraction of the maximal NDP-MSH response | mMC3R percent maximal stimulatory response at 100 μM (mMC3R): 60% @; mMC3R percent maximal stimulatory response at 100 μM (mMC3R; listed as MDES-147-2c): 60%; mMC4R percent maximal stimulatory response at 100 μM (mMC4R): 65% @; mMC4R percent maximal stimulatory response at 100 μM (mMC4R; listed as MDES-147-2c): 65% |
| C[C@@H]1NC(=O)[C@H](CN)NC(=O)[C@H](Cc2c[nH]c3ccccc23)NC(=O)[C@H](CCCNC(=N)N)NC(=O)[C@@H](Cc2ccccc2)NC(=O)[C@@H]2CCCN2C(=O)[C@H]2CCCN2C1=O [MDE6-5-1c, c[Pro-DPhe-Arg-Trp-Dap-Ala-DPro]] (cyclo(P[dF]RW[Dap]A[dP])) | 600 nM | 48 nM | partially stimulated | 150 ± 10 nM |  |  |  | agonist activity/efficacy at mMC1R (in words) (mMC1R): full agonist |
| N=C(N)NCCC[C@@H]1NC(=O)[C@@H](Cc2ccccc2)NC(=O)[C@@H]2CCCN2C(=O)[C@H]2CCCN2C(=O)[C@H](CC(N)=O)NC(=O)[C@H](Cc2c[nH]c3ccccc23)NC1=O [MDE6-10-1c, c[Pro-DPhe-Arg-Trp-Asn-DPro]] (cyclo(P[dF]RWN[dP])) | 40 nM |  | no agonist activity; also recorded: did not possess agonist activity | 1100 nM |  |  |  | agonist activity/efficacy at mMC5R (in words) (mMC5R): partially stimulated; decreased potency at mMC4R relative to MDE5-149-1c (mMC4R; decrease relative to MDE5-149-1c): 8 fold; selectivity for the mMC1R over the mMC3R (mMC1R; agonist potency): > 2500 fold; selectivity for the mMC1R over the mMC5R (mMC1R; agonist potency): > 1000 fold; increased agonist potency at mMC1R over MDE5-149-1c (mMC1R; increase over MDE5-149-1c): 10 fold |
| N=C(N)NCCC[C@@H]1NC(=O)[C@@H](Cc2ccccc2)NC(=O)[C@@H]2CCCN2C(=O)[C@H]2CCCN2C(=O)[C@H](CN)NC(=O)[C@H](Cc2c[nH]c3ccccc23)NC1=O [MDE6-12-1c, c[Pro-DPhe-Arg-Trp-Dap-DPro]] (cyclo(P[dF]RW[Dap][dP])) | 110 nM |  | no observable activity; also recorded: did not possess agonist activity; also recorded: no agonist activity |  |  |  | stimulated a fraction of the maximal NDP-MSH response; also recorded: partially stimulated | agonist activity/efficacy at mMC5R (in words) (mMC5R): no observable activity; also recorded: unable to stimulate; also recorded: no agonist activity; mMC4R percent maximal stimulatory response at 100 μM (mMC4R): 35%; mMC1R partial agonist, percent maximal NDP stimulation (mMC1R; PA, relative to maximal NDP-MSH response): PA, 75%; selectivity for the mMC1R over the other receptors (mMC1R; over mMC3R, mMC4R, mMC5R): > 500 fold |
| N=C(N)NCCC[C@@H]1NC(=O)[C@@H](Cc2ccccc2)NC(=O)[C@H](Cc2c[nH]cn2)NC(=O)[C@@H]2CCCN2C(=O)[C@H]2CCCN2C(=O)[C@H](CN)NC(=O)[C@H](Cc2c[nH]c3ccccc23)NC1=O [MDE6-12-2c, c[Pro-His-DPhe-Arg-Trp-Dap-DPro]] (cyclo(PH[dF]RW[Dap][dP])) |  |  | partially stimulated |  |  |  |  | decreased agonist potency at mMC5R relative to MDE6-5-2c (mMC5R; relative to MDE6-5-2c): 1,100 fold; decreased agonist potency at mMC4R relative to MDE6-5-2c (mMC4R; relative to MDE6-5-2c): 593 fold; decreased agonist potency at mMC1R relative to MDE6-5-2c (mMC1R; relative to MDE6-5-2c): 418 fold |

Now from value to molecule, other results behind:

| EC50 (mMC1R) | EC50 (mMC5R) | agonist activity/efficacy at mMC3R (in words) (mMC3R) | EC50 (mMC4R) | decreased agonist potency at mMC1R relative to MDE5-149-2c (mMC1R) | EC50 (mMC3R) | SMILES | agonist activity/efficacy at mMC4R (in words) (mMC4R) | other results |
| --- | --- | --- | --- | --- | --- | --- | --- | --- |
| 400 ± 200 nM | 40 ± 10 nM | partially stimulated | 130 ± 70 nM | 1140 fold |  | C[C@@H]1NC(=O)[C@H](CC(N)=O)NC(=O)[C@H](Cc2c[nH]c3ccccc23)NC(=O)[C@H](CCCNC(=N)N)NC(=O)[C@@H](Cc2ccccc2)NC(=O)[C@@H]2CCCN2C(=O)[C@H]2CCCN2C(=O)[C@H](Cc2ccccc2)NC1=O [MDE5-149-1c, c[Pro-DPhe-Arg-Trp-Asn-Ala-Phe-DPro]] (cyclo(P[dF]RWNAF[dP])) |  | decreased agonist potency at mMC5R relative to MDE5-149-2c (mMC5R): 90 fold; decreased agonist potency at mMC4R relative to MDE5-149-2c (mMC4R): 90 fold |
| 0.35 nM | 0.45 nM |  | 1.4 nM |  | 32 nM | C[C@@H]1NC(=O)[C@H](CC(N)=O)NC(=O)[C@H](Cc2c[nH]c3ccccc23)NC(=O)[C@H](CCCNC(=N)N)NC(=O)[C@@H](Cc2ccccc2)NC(=O)[C@H](Cc2cnc[nH]2)NC(=O)[C@@H]2CCCN2C(=O)[C@H]2CCCN2C(=O)[C@H](Cc2ccccc2)NC1=O [MDE5-149-2c, c[Pro-His-DPhe-Arg-Trp-Asn-Ala-Phe-DPro]] (cyclo(H[dF]RWNAF[dP]P)) |  | selectivity for the mMC4R over the mMC3R (mMC4R): 23 fold |
| 190 nM | 46 ± 6 nM | partial agonist | 100 nM |  | 3000 nM | C[C@@H]1NC(=O)[C@H](CN)NC(=O)[C@H](Cc2c[nH]c3ccccc23)NC(=O)[C@H](CCCNC(=N)N)NC(=O)[C@@H](Cc2ccccc2)NC(=O)[C@@H]2CCCN2C(=O)[C@H]2CCCN2C(=O)[C@H](Cc2ccccc2)NC1=O [MDE5-151-1c, c[Pro-DPhe-Arg-Trp-Dap-Ala-Phe-DPro]] (cyclo(P[dF]RW[Dap]AF[dP])) | full agonist | agonist activity/efficacy at mMC1R (in words) (mMC1R): partial agonist |
| 24 nM | 18 ± 2 nM | full agonist | 23 nM | 70 fold | 260 nM | C[C@@H]1NC(=O)[C@H](CN)NC(=O)[C@H](Cc2c[nH]c3ccccc23)NC(=O)[C@H](CCCNC(=N)N)NC(=O)[C@@H](Cc2ccccc2)NC(=O)[C@H](Cc2c[nH]cn2)NC(=O)[C@@H]2CCCN2C(=O)[C@H]2CCCN2C(=O)[C@H](Cc2ccccc2)NC1=O [MDE5-151-2c, c[Pro-His-DPhe-Arg-Trp-Dap-Ala-Phe-DPro]] (cyclo(PH[dF]RW[Dap]AF[dP])) | partial agonist | agonist activity/efficacy at mMC1R (in words) (mMC1R): full agonist |
|  |  | partially stimulated |  |  |  | C[C@@H]1NC(=O)[C@H](CC(N)=O)NC(=O)[C@H](Cc2c[nH]c3ccccc23)NC(=O)[C@H](CCCNC(=N)N)NC(=O)[C@@H](Cc2ccccc2)NC(=O)[C@@H]2CCCN2C(=O)[C@H]2CCCN2C1=O [MDE6-3-1c, c[Pro-DPhe-Arg-Trp-Asn-Ala-DPro]] (cyclo(P[dF]RWNA[dP])) |  | mMC3R percent maximal stimulatory response at 100 μM (mMC3R): 55% @; selectivity for the mMC4R over the mMC3R (mMC4R): > 100 fold |
|  |  |  |  | 34 fold | 300 nM | C[C@@H]1NC(=O)[C@H](CC(N)=O)NC(=O)[C@H](Cc2c[nH]c3ccccc23)NC(=O)[C@H](CCCNC(=N)N)NC(=O)[C@@H](Cc2ccccc2)NC(=O)[C@H](Cc2c[nH]cn2)NC(=O)[C@@H]2CCCN2C(=O)[C@H]2CCCN2C1=O [MDE6-3-2c, c[Pro-His-DPhe-Arg-Trp-Asn-Ala-DPro]] (cyclo(PH[dF]RWNA[dP])) |  | decreased agonist potency at mMC5R relative to MDE5-149-2c (mMC5R): 5 fold; decreased agonist potency at mMC3R relative to MDE5-149-2c (mMC3R; relative to MDE5-149-2c): 9 fold; decreased agonist potency at mMC4R relative to MDE5-149-2c (mMC4R): 21 fold |
|  |  |  |  | 143 fold | 510 nM | N=C(N)NCCC[C@@H]1NC(=O)[C@@H](Cc2ccccc2)NC(=O)[C@H](Cc2c[nH]cn2)NC(=O)[C@@H]2CCCN2C(=O)[C@H]2CCCN2C(=O)[C@H](CC(N)=O)NC(=O)[C@H](Cc2c[nH]c3ccccc23)NC1=O [MDE6-10-2c, c[Pro-His-DPhe-Arg-Trp-Asn-DPro]] (cyclo(PH[dF]RWN[dP])) |  | decreased agonist potency at mMC5R relative to MDE5-149-2c (mMC5R): 37 fold; decreased agonist potency at mMC4R relative to MDE5-149-2c (mMC4R): 121 fold |
